Experimental data: patent US20190239509A1, “METHOD OF CONTROLLING PLANTS” (SYNGENTA PARTICIPATIONS AG, priority 2016, published 2019)

Assays:
Format in all cases: in vivo
[1] = system: Amaranthus retroflexus (AMARE); assay: B3 drilled field trial Brazil, post-emergence, AMARE; settings: 28 days after application, 100=total damage, 0=no damage
Method: (§1) Seeds of a variety of test species were used in drilled field trials to look at the control of important weed species present in corn crops as well as the effect on soybean (a volunteer crop in corn). Trials were carried out in Brazil in the summer season and the second season.
(§2) Plot size was 10-15 m^2, and two replicates were carried out per treatment. Plants were treated post-emergence between the 2 and 4 leaf stage. Species tested were Amaranthus retroflexus (AMARE), Ipomoea grandifolia (IAQGR), Digitaria horizontalis (DIGHO), Bidens pilosa (BIDPI), Eleusine indica (ELEIN), Brachiaria decumbens (BRADC), Centrus echinatus (CCHEC), Euphorbia heterophylla (EPPHL), Brachiaria plantaginea (BRAPL) and Glycine max (GLXMA; soybean). Fungicides and insecticides were used as necessary for plant health. The test was evaluated at 28 days after application with 100=total damage to plant and 0=no damage to plant.
(§3) Expected results were calculated using the Colby Formula.

[2] = system: Glycine max (GLXMA; soybean); assay: B3 drilled field trial Brazil, post-emergence, soybean; settings: 28 days after application
Method: as §1, §2, §3

[3] = system: Euphorbia heterophylla (EPPHL); assay: B2 drilled field trial Brazil, post-emergence, EPPHL; settings: 100=total damage, 0=no damage; for EPPHL 7DAA Observed: 7 days after application; for EPPHL 30 DAA Observed: 30 days after application
Method: (§4) Seeds of a variety of test species were used in drilled field trials to look at the control of important weed species present in corn crops as well as the effect on soybean (a volunteer crop in corn). Trials were carried out in Brazil in the summer season.
(§5) Plot size was 10-12 m^2, and two replicates were carried out per treatment. Plants were treated post-emergence at the 4 leaf stage. Fungicides and insecticides were used as necessary for plant health. The test was evaluated at 7 and 30 days after application (Amaranthus viridis (AMAVI), Bidens pilosa (BIDPI), Euphorbia heterophylla (EPPHL)) and 9 and 37 days after application (Brachiaria plantaginea (BRAPL) and soybean (Glycine max GLXMA) with 100=total damage to plant and 0=no damage to plant.
as §3

[4] = system: Ipomoea grandifolia (IAQGR); assay: B3 drilled field trial Brazil, post-emergence, IAQGR; settings: 28 days after application
Method: as §1, §2, §3

Eleusine indica (ELEIN) = assay: B3 drilled field trial Brazil, post-emergence, ELEIN; settings: 28 days after application
Method: as §1, §2, §3

[5] = system: Amaranthus viridis (AMAVI); assay: B2 drilled field trial Brazil, post-emergence, AMAVI; settings: 100=total damage, 0=no damage; for AMAVI 7DAA Observed: 7 days after application; for AMAVI 30 DAA Observed: 30 days after application
Method: as §4, §5, §3

Bidens pilosa (BIDPI) [6] = assay: B3 drilled field trial Brazil, post-emergence, BIDPI; settings: 28 days after application
Method: as §1, §2, §3

Bidens pilosa (BIDPI) [7] = assay: B2 drilled field trial Brazil, post-emergence, BIDPI; settings: 100=total damage, 0=no damage; for BIDPI 7DAA Observed: 7 days after application; for BIDPI 30 DAA Observed: 30 days after application
Method: as §4, §5, §3

[8] = system: Brachiaria plantaginea (BRAPL); assay: B2 drilled field trial Brazil, post-emergence, BRAPL; settings: 100=total damage, 0=no damage; for BRAPL 9DAA Observed: 9 days after application; for BRAPL 37 DAA Observed: 37 days after application
Method: as §4, §5, §3

[9] = system: Centrus echinatus (CCHEC); assay: B3 drilled field trial Brazil, post-emergence, CCHEC; settings: 28 days after application
Method: as §1, §2, §3

[10] = system: Euphorbia heterophylla (EPPHL); assay: B3 drilled field trial Brazil, post-emergence, EPPHL; settings: Summer season, 28 days after application
Method: as §1, §2, §3

[11] = system: Digitaria horizontalis (DIGHO); assay: B3 drilled field trial Brazil, post-emergence, DIGHO; settings: 28 days after application
Method: as §1, §2, §3

[12] = system: Brachiaria plantaginea (BRAPL); assay: B3 drilled field trial Brazil, post-emergence, BRAPL; settings: Summer season, 28 days after application
Method: as §1, §2, §3

[13] = system: soybean (Glycine max GLXMA); assay: B2 drilled field trial Brazil, post-emergence, soybean; settings: 100=total damage, 0=no damage; for GLXMA 9DAA Observed: 9 days after application; for GLXMA 37 DAA Observed: 37 days after application
Method: as §4, §5, §3

[14] = system: Brachiaria decumbens (BRADC); assay: B3 drilled field trial Brazil, post-emergence, BRADC; settings: 28 days after application
Method: as §1, §2, §3

SMILES: CS(=O)(=O)c1ccc(C(=O)C2C(=O)CCCC2=O)c([N+](=O)[O-])c1 [Mesotrione, reference compound]
- AMARE Second season Observed ([1]; 75 g ai/ha): 40
- AMARE Summer season Observed ([1]; 75 g ai/ha): 73
- AMARE Second season Observed ([1]; 125 g ai/ha): 54
- AMARE Summer season Observed ([1]; 125 g ai/ha): 85
- Observed damage (100=total damage to plant, 0=no damage) ([2]; Second season, 75 g ai/ha): 83
- Observed damage (100=total damage to plant, 0=no damage) ([2]; Second season, 125 g ai/ha): 89
- Observed damage (100=total damage to plant, 0=no damage) ([2]; Summer season, 75 g ai/ha): 69
- Observed damage (100=total damage to plant, 0=no damage) ([2]; Summer season, 125 g ai/ha): 92
- EPPHL 7DAA Observed ([3]; 75 g ai/ha): 30
- EPPHL 30 DAA Observed ([3]; 75 g ai/ha): 20
- EPPHL 7DAA Observed ([3]; 125 g ai/ha): 40
- EPPHL 30 DAA Observed ([3]; 125 g ai/ha): 35
- Observed damage (100=total damage to plant, 0=no damage) ([4]; Second season, 75 g ai/ha): 79
- Observed damage (100=total damage to plant, 0=no damage) ([4]; Second season, 125 g ai/ha): 87
- Observed damage (100=total damage to plant, 0=no damage) ([4]; Summer season, 75 g ai/ha): 63
- Observed damage (100=total damage to plant, 0=no damage) ([4]; Summer season, 125 g ai/ha): 96
- Observed damage (100=total damage to plant, 0=no damage) (Eleusine indica (ELEIN); Second season, 75 g ai/ha): 20
- Observed damage (100=total damage to plant, 0=no damage) (Eleusine indica (ELEIN); Second season, 125 g ai/ha): 50
- Observed damage (100=total damage to plant, 0=no damage) (Eleusine indica (ELEIN); Summer season, 75 g ai/ha): 53
- Observed damage (100=total damage to plant, 0=no damage) (Eleusine indica (ELEIN); Summer season, 125 g ai/ha): 58
- AMAVI 7DAA Observed ([5]; 75 g ai/ha): 25
- AMAVI 30 DAA Observed ([5]; 75 g ai/ha): 30
- AMAVI 7DAA Observed ([5]; 125 g ai/ha): 65
- AMAVI 30 DAA Observed ([5]; 125 g ai/ha): 50
- Observed damage (100=total damage to plant, 0=no damage) (Bidens pilosa (BIDPI) [6]; Second season, 75 g ai/ha): 68
- Observed damage (100=total damage to plant, 0=no damage) (Bidens pilosa (BIDPI) [6]; Second season, 125 g ai/ha): 70
- Observed damage (100=total damage to plant, 0=no damage) (Bidens pilosa (BIDPI) [6]; Summer season, 75 g ai/ha): 53
- Observed damage (100=total damage to plant, 0=no damage) (Bidens pilosa (BIDPI) [6]; Summer season, 125 g ai/ha): 74
- BIDPI 7DAA Observed (Bidens pilosa (BIDPI) [7]; 75 g ai/ha): 28
- BIDPI 30 DAA Observed (Bidens pilosa (BIDPI) [7]; 75 g ai/ha): 28
- BIDPI 7DAA Observed (Bidens pilosa (BIDPI) [7]; 125 g ai/ha): 40
- BIDPI 30 DAA Observed (Bidens pilosa (BIDPI) [7]; 125 g ai/ha): 40
- BRAPL 9DAA Observed ([8]; 75 g ai/ha): 53
- BRAPL 37 DAA Observed ([8]; 75 g ai/ha): 7
- BRAPL 9DAA Observed ([8]; 125 g ai/ha): 65
- BRAPL 37 DAA Observed ([8]; 125 g ai/ha): 0
- Observed damage (100=total damage to plant, 0=no damage) ([9]; Second season, 75 g ai/ha): 0
- Observed damage (100=total damage to plant, 0=no damage) ([9]; Second season, 125 g ai/ha): 0
- Observed damage (100=total damage to plant, 0=no damage) ([9]; Summer season, 75 g ai/ha): 0
- Observed damage (100=total damage to plant, 0=no damage) ([9]; Summer season, 125 g ai/ha): 0
- Observed damage (100=total damage to plant, 0=no damage) ([10]; 75 g ai/ha): 40
- Observed damage (100=total damage to plant, 0=no damage) ([10]; 125 g ai/ha): 58
- Observed damage (100=total damage to plant, 0=no damage) ([11]; Second season, 75 g ai/ha): 40
- Observed damage (100=total damage to plant, 0=no damage) ([11]; Second season, 125 g ai/ha): 70
- Observed damage (100=total damage to plant, 0=no damage) ([11]; Summer season, 75 g ai/ha): 50
- Observed damage (100=total damage to plant, 0=no damage) ([11]; Summer season, 125 g ai/ha): 72
- Observed damage (100=total damage to plant, 0=no damage) ([12]; 75 g ai/ha): 15
- Observed damage (100=total damage to plant, 0=no damage) ([12]; 125 g ai/ha): 28
- GLXMA 9DAA Observed ([13]; 75 g ai/ha): 45
- GLXMA 37 DAA Observed ([13]; 75 g ai/ha): 65
- GLXMA 9DAA Observed ([13]; 125 g ai/ha): 55
- GLXMA 37 DAA Observed ([13]; 125 g ai/ha): 88
- Observed damage (100=total damage to plant, 0=no damage) ([14]; Second season, 75 g ai/ha): 10
- Observed damage (100=total damage to plant, 0=no damage) ([14]; Second season, 125 g ai/ha): 13
- Observed damage (100=total damage to plant, 0=no damage) ([14]; Summer season, 75 g ai/ha): 48
- Observed damage (100=total damage to plant, 0=no damage) ([14]; Summer season, 125 g ai/ha): 50
